Values of other authors, collected in patent US20090118340A1, “Method for inhibiting and/or preventing formation of cancer metastases and seconddary malignant cancers” (priority 2007, published 2009).

System: murine leukemia L1210
Details: for cytotoxicity in cultured leukemia cells: Pharmacological Reports, 2007, 59, 216-223

Row | SMILES | cytotoxicity in cultured leukemia cells | cytotoxicity, factor lower than 3-nitro-1-methylpyridinium chloride (observed only at very high concentration)
1 | C[n+]1cccc([N+](=O)[O-])c1.[Cl-] [3-nitro-1-methylpyridinium chloride, reference compound] | highest cytotoxicity | 
2 | C[n+]1cccc(C(N)=O)c1 [MNA, 1-methylnicotinamide] | negligible | about 7000
